Laboratory results taken from article PMC6268546, “A PAMPA Assay as Fast Predictive Model of Passive Human Skin Permeability of New Synthesized Corticosteroid C-21 Esters” (Molecules, 2012).
Where “and” joins values, the source holds several entries; their conditions need not be identical. Equal values may be shown once.

Key:
[1] = PAMPA test (skin permeability model); conditions: for permeability coefficient log Pe / permeation parameter CA(t)/CD(0) / retention factor R (membrane retention): 70% silicone oil-30% IPM membrane, 7 h incubation, 100 μM in 5% DMSO phosphate buffer pH 7, triplicate mean; for Papp at 7 h, 100 μM: PAMPA, pH 7
Experimental: The study was performed in triplicate and the results are presented as mean values. After the PAMPA tests was performed, a HPLC method was used to measure the concentrations of the investigated corticosteroids: the initial concentration–CD(0) in the starting solution, the residual concentration–CD(t) in the donor compartment (7 h after incubation) and the transferred concentration–CA(t) in the acceptor compartment (7 h after incubation). The assay was performed using the previously described HPLC method with mobile phase modification for determination of standard corticosteroids. The mobile phase modification was introduced to achieve complete separation standard corticosteroids peak from DMSO peak, which was used as cosolvent. DMSO was used as cosolvent with the aim of increasing the corticosteroid C-21 esters’ solubility. DMSO is one of the earliest and most widely studied penetration enhancers for transdermal drug delivery systems.
On the basis of the initial (100 μM) and calculated residual and transferred concentrations according to peak area comparison at zero time t0, the retention factors–R and permeability coefficients–logPe of investigated corticosteroids were obtained.
Phosphate buffer (pH = 7) was prepared by dissolving NaH2PO4·H2O (1.167 g) and Na2HPO4·7H2O (3.093 g) in water (1000 mL) with the fixed total concentration of 20 mM. The 5% DMSO solution were prepared dissolving DMSO in phosphate buffer. The corticosteroid solutions were prepared dissolving the investigated corticosteroid standards as well as new synthesized corticosteroid C-21 esters in 5% DMSO solution. […] An aliquot of previously prepared mixture (3.5 mL, 7 mL silicone oil and 3 mL IPM) was transferred into a 10 mL volumetric flask, dissolved and fill up to mark with n-hexane.
Permeation experiments were carried out in hydrophobic PVDF 96-well filter plates (Millipore, Molsheim, France). […] Next, in each well of acceptor plate, 5% DMSO solution (400 μL) was transferred with an automatic pipette and covered by the donor plate, creating a PAMPA sandwich. In each well of the donor plate solutions of the tested corticosteroid in 5% DMSO solution (100 μM, 300 μL) was transferred by the use of an automatic pipette. Each substance was measured in triplicate at iso-pH conditions (the same pH value in donor and receptor compartment). The donor plate was covered to prevent evaporation and the whole system set up to interact with the vibratory mixer. After 7 h, PAMPA sandwich was removed from the mixer and vibration, and using the HPLC method the concentration of the investigated substances in the donor and receptor compartments were determined. The HPLC method used was as previously described but with some necessary modifications. A mobile phase of methanol–water (75:25 v/v) was used for analysis of corticosteroid C-21 esters, while the mobile phase methanol–water (50:50 v/v) was used for the analysis of unesterified corticosteroids to increase their retention time and prevent overlapping with the DMSO peak. Other HPLC parameters were as previously described. The concentrations of each tested corticosteroid in the appropriate time interval in the donor and acceptor compartments were calculated using the method of comparing the peak area of the initial concentration at zero time t0.
The values of permeability coefficients–logPe and retention factors–R of examined corticosteroids were calculated using equations (2) and (3). The retention factor, R can be defined as the mole fraction retained in the membrane and in the microplates (i.e., filters and plate materials): [drawing 1] (2) where CA(t)/CD(0) represents the amount of compound that reached the acceptor compartment after incubation time t (for VA = VD): […]

[2] = tested on: croton oil induced mice ear edema; conditions: 4 h after application, at ED50 of FA (28 μM); cited from earlier work
[3] = approximate logKp (permeability coefficient through human skin) calculated from logPe by equation (1); conditions: logKp = 1.34 logPe + 0.28, from PAMPA logPe
From the text: Ottaviani and coworkers predicted skin permeation of numerous compounds applying a new membrane (70% silicone oil and 30% IPM) in the PAMPA test and presented permeate classifications on the basis of available literature permeability coefficients through human skin, logKp.
The proposed equation for correlation between logKp and logPe for 31 investigated compounds was: […]

Compound | permeability coefficient log Pe [1] | permeation parameter CA(t)/CD(0) [1] | retention factor R (membrane retention) [1] | relative anti-inflammatory activity (reduction of mass edema) in comparison to FA (100%) [2] | logKp (approximate, calculated) [3] | Papp at 7 h, 100 μM [1] | permeation parameter CA(t)/CD(0) ([1]; listed as mometasone furoate) | retention factor R (membrane retention) ([1]; listed as mometasone furoate) | permeate classification (groups I-III) from R versus CA(t)/CD(0) ([1]; relationship between retention factors and permeation parameters, Figure 2)
CCOC(CC)C(=O)OCC(=O)C1(O)C(C)CC2C3CCC4=CC(=O)C=CC4(C)C3(F)C(O)CC21C (centres unmarked) [DEX-21-EB, dexamethasone 21-(2′-ethoxybutyrate)] | −4.58 ± 0.13 cm/s | 33.4 ± 1.2% | 11.3 ± 3.5% |  |  |  |  |  | 
CCOC(C)C(=O)OCC(=O)C1(O)C(C)CC2C3CCC4=CC(=O)C=CC4(C)C3(F)C(O)CC21C (centres unmarked) [DEX-21-EP, dexamethasone 21-(2′-ethoxypropionate)] |  | 31.6 ± 0.6% | <1% |  |  |  |  |  | 
CCC(OC)C(=O)OCC(=O)C1(O)C(C)CC2C3CCC4=CC(=O)C=CC4(C)C3(F)C(O)CC21C (centres unmarked) [DEX-21-MB, dexamethasone 21-(2′-methoxybutyrate)] | −4.58 ± 0.15 cm/s | 37.4 ± 1.5% | <1% |  |  |  |  |  | 
COC(C)C(=O)OCC(=O)C1(O)C(C)CC2C3CCC4=CC(=O)C=CC4(C)C3(F)C(O)CC21C (centres unmarked) [DEX-21-MP, dexamethasone 21-(2′-methoxypropionate)] | −4.88 ± 0.17 cm/s | 23.8 ± 1.5% | <1% |  |  |  |  |  | 
CC(Oc1ccccc1)C(=O)OCC(=O)C1(O)C(C)CC2C3CCC4=CC(=O)C=CC4(C)C3(F)C(O)CC21C (centres unmarked) [DEX-21-PhP, dexamethasone 21-(2′-phenoxypropionate)] |  | 4.1 ± 1.1% | 86.5 ± 4.2% |  |  |  |  |  | 
CC1(C)O[C@@H]2C[C@H]3[C@@H]4C[C@H](F)C5=CC(=O)C=C[C@]5(C)[C@@]4(F)[C@@H](O)C[C@]3(C)[C@]2(C(=O)CO)O1 [FA, fluocinolone acetonide, reference compound] |  | 6.7 ± 1.2% | <1% | 100% | −6.77 | 5.5 ×10⁻⁶ cm/s |  |  | 
CCOC(CC)C(=O)OCC(=O)C12OC(C)(C)OC1CC1C3CC(F)C4=CC(=O)C=CC4(C)C3(F)C(O)CC12C (centres unmarked) [FA-21-EB, fluocinolone acetonide 21-(2′-ethoxybutyrate)] | −4.82 ± 0.10 cm/s | 7.2 ± 0.9% | 72.8 ± 2.6% | 60% |  |  |  |  | 
CCOC(C)C(=O)OCC(=O)[C@@]12OC(C)(C)O[C@@H]1C[C@H]1[C@@H]3C[C@H](F)C4=CC(=O)C=C[C@]4(C)[C@@]3(F)[C@@H](O)C[C@@]12C (some centres unmarked) [FA-21-EP, fluocinolone acetonide 21-(2′-ethoxypropionate)] | −4.52 ± 0.19 cm/s | 22.2 ± 1.6% | 45.8 ± 4.1% | less than 10% |  |  |  |  | 
CCC(OC)C(=O)OCC(=O)C12OC(C)(C)OC1CC1C3CC(F)C4=CC(=O)C=CC4(C)C3(F)C(O)CC12C (centres unmarked) [FA-21-MB, fluocinolone acetonide 21-(2′-methoxybutyrate)] | −4.65 ± 0.12 cm/s | 18.0 ± 1.3% | 47.2 ± 3.4% |  |  |  |  |  | 
COC(C)C(=O)OCC(=O)[C@@]12OC(C)(C)O[C@@H]1C[C@H]1[C@@H]3C[C@H](F)C4=CC(=O)C=C[C@]4(C)[C@@]3(F)[C@@H](O)C[C@@]12C (some centres unmarked) [FA-21-MP, fluocinolone acetonide 21-(2′-methoxy-propionate)] | −4.64 ± 0.17 cm/s | 23.1 ± 1.4% | 34.1 ± 3.5% | 108.12% |  |  |  |  | 
CC(Oc1ccccc1)C(=O)OCC(=O)C12OC(C)(C)OC1CC1C3CC(F)C4=CC(=O)C=CC4(C)C3(F)C(O)CC12C (centres unmarked) [FA-21-PhP, fluocinolone acetonide 21-(2′-phenoxypropionate)] | −5.68 ± 0.15 cm/s | 1.3 ± 0.6% | 71.9 ± 2.8% | 65% |  |  |  |  | 
C[C@]12CCC(=O)C=C1CC[C@@H]1[C@@H]2[C@@H](O)C[C@@]2(C)[C@H]1CC[C@]2(O)C(=O)CO [H, hydrocortisone, reference compound] |  |  | 1.5 ± 0.9% |  |  |  |  |  | 
CC(=O)OCC(=O)[C@@]1(O)CC[C@H]2[C@@H]3CCC4=CC(=O)CC[C@]4(C)[C@H]3[C@@H](O)C[C@@]21C [H-21-Ac, hydrocortisone acetate, reference compound] |  | 10% and 10.0 ± 1.7% | < 1% |  | −6.51 | 8.51 ×10⁻⁶ cm/s |  |  | 
C[C@@H]1C[C@H]2[C@@H]3CCC4=CC(=O)C=C[C@]4(C)[C@@]3(Cl)[C@@H](O)C[C@]2(C)[C@@]1(OC(=O)c1ccco1)C(=O)CCl [MF, mometasone furoate, reference compound] |  | 7.7 ± 1.5% | 81.0 ± 2.9% |  | −5.21 | 79.4 ×10⁻⁶ cm/s | 7.7% | 81% | group III (having high membrane retention and low permeation (group III))
CC1(C)O[C@@H]2C[C@H]3[C@@H]4CCC5=CC(=O)C=C[C@]5(C)[C@@]4(F)[C@@H](O)C[C@]3(C)[C@]2(C(=O)CO)O1 [TA, triamcinolone acetonide, reference compound] |  | 10.8 ± 1.5% | 4.7 ± 2.3% |  | −6.43 | 9.77 ×10⁻⁶ cm/s |  |  | 
CCOC(CC)C(=O)OCC(=O)C12OC(C)(C)OC1CC1C3CCC4=CC(=O)C=CC4(C)C3(F)C(O)CC12C (centres unmarked) [TA-21-EB, triamcinolone acetonide 21-(2′-ethoxybutyrate)] | −4.87 ± 0.21 cm/s | 7.3 ± 1.6% | 70.1 ± 3.4% |  |  |  |  |  | 
CCOC(C)C(=O)OCC(=O)C12OC(C)(C)OC1CC1C3CCC4=CC(=O)C=CC4(C)C3(F)C(O)CC12C (centres unmarked) [TA-21-EP, triamcinolone acetonide 21-(2′-ethoxypropionate)] | −4.66 ± 0.15 cm/s | 23.0 ± 1.8% | 32.4 ± 1.7% |  |  |  |  |  | 
CCC(OC)C(=O)OCC(=O)C12OC(C)(C)OC1CC1C3CCC4=CC(=O)C=CC4(C)C3(F)C(O)CC12C (centres unmarked) [TA-21-MB, triamcinolone acetonide 21-(2′-methoxybutyrate)] | −4.85 ± 0.23 cm/s | 16.9 ± 2.0% | 39.3 ± 4.1% |  |  |  |  |  | 
COC(C)C(=O)OCC(=O)C12OC(C)(C)OC1CC1C3CCC4=CC(=O)C=CC4(C)C3(F)C(O)CC12C (centres unmarked) [TA-21-MP, triamcinolone acetonide 21-(2′-methoxypropionate)] | −4.45 ± 0.16 cm/s | 38.1 ± 1.6% | 13.5 ± 4.1% |  |  |  |  |  | 
CC(Oc1ccccc1)C(=O)OCC(=O)C12OC(C)(C)OC1CC1C3CCC4=CC(=O)C=CC4(C)C3(F)C(O)CC12C (centres unmarked) [TA-21-PhP, triamcinolone acetonide 21-(2′-phenoxypropionate)] | −4.07 ± 0.14 cm/s | 27.1 ± 1.4% | 51.1 ± 3.8% |  |  |  |  |  | 
